SMILES strings stand for the structures. Where a name gives a salt, the structure may show the parent alone.

Regarding `COc1cc(C(=O)c2c(-c3ccc(NS(=O)(=O)c4ccccc4)cc3)sc3cc(O)ccc23)ccc1CN1CCCC1` (as salt: oxalate) [Example 32, 6-Hydroxy-2-[4-(phenylsulfonylamino)phenyl)benzo[b]thiophen-3-yl 3-Methoxy-4-(1-pyrrolidinylmethyl)phenyl Ketone Oxalate], the melting point (commonly the temperature, or range, at which the solid turns liquid) was 180 °C (dec.).
Under `COc1cc(Cc2c(-c3ccc(NS(=O)(=O)c4ccccc4)cc3)sc3cc(O)ccc23)ccc1CN1CCCC1` (as salt: oxalate) [Example 31, 6-Hydroxy-3-[3-methoxy-4-(1-pyrrolidinylmethyl)benzyl]-2-[4-(phenylsulfonylamino)phenyl]benzo[b]thiophene Oxalate] stands 150 °C (dec.).
